The values that follow come from US8975280B2, “Deoxynojirimycin and D-arabinitol analogs and methods of using” (The Chancellor, Masters and Scholars of The University of …, priority 2006, dated 2015).

The target of assay [1] is T1, α-glucosidase II (Rattus norvegicus, UniProt A0A8I6GFL3).
T1 construct: Purified α-glucosidase I and II were purified from rat liver by known methods; from tissue; host or cells: rat liver
The experiment in a line: In vitro inhibition of purified α-glucosidase II, (a) and (b) activities, 2-AA-labeled FOS substrates, HPLC. It counts as biochemical. As for the experimental part: (§1) All chromatography was performed at 30° C. The first solvent, solvent A, was acetonitrile and the second solvent, solvent B, was Milli-Q water. […] Samples (<50 μl) were injected in Milli-Q water/acetonitrile (3/7, v/v). All chromatography was controlled, including data collection and processing, using Waters Empower software. Glucose units were determined, following comparison with a 2-AA-labeled glucose oligomer ladder (derived from a partial hydrolysate of dextran) external standard using Peak Time software (developed in-house).
Purified α-glucosidase I and II were purified from rat liver by known methods. […] 2-AA-labeled FOS were isolated and purified as substrates for either α-glucosidase I or II. […] […] […] […] The reactions were stopped by the addition of 30 μl acetonitrile.

Assay [2] deals with T2, α-glucosidase I (Rattus norvegicus, UniProt O88941).
T2 construct: Purified α-glucosidase I and II were purified from rat liver by known methods; from tissue; host or cells: rat liver
T2 sequence (O88941 1-834): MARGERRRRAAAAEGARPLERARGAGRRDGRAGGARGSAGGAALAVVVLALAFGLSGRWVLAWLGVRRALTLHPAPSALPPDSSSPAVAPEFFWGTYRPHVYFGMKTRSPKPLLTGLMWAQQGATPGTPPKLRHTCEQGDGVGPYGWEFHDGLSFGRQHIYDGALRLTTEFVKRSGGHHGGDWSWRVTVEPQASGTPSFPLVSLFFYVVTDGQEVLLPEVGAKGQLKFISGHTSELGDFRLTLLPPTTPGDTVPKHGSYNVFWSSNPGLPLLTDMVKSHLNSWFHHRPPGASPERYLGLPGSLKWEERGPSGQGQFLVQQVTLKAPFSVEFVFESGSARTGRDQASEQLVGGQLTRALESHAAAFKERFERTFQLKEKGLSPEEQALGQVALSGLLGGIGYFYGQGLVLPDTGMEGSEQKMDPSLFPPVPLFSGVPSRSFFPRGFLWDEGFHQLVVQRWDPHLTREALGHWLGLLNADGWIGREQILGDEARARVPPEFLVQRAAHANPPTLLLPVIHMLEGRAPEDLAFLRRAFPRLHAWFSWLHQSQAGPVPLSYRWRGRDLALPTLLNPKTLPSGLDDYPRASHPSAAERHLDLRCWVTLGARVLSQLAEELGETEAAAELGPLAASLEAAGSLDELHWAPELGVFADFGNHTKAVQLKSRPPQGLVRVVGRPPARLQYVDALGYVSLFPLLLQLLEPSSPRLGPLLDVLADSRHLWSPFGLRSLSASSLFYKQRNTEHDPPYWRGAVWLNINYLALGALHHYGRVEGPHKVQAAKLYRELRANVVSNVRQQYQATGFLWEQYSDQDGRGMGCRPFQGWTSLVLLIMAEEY
Kind of assay: In vitro inhibition of purified α-glucosidase I, 2-AA-labeled FOS substrates, HPLC. It counts as biochemical. As for the experimental part: as §1
Purified α-glucosidase I and II were purified from rat liver by known methods. […] 2-AA-labeled FOS were isolated and purified as substrates for either α-glucosidase I or II. Fluorescently-labeled substrates Glc1Man5GlcNAc1 (G1M5N), Glc2Man5GlcNAc1 (G2M5N), Glc3Man5GlcNAc1 (G3M5N) and Glc3Man9GlcNAc, (G3M9N2) were added to separate 1.5 ml centrifuge tubes with varying concentrations of imino sugar and dried under vacuum. […] Similarly, α-glucosidase II was incubated for 2 hours with G2M5N and 20 minutes with G1M5N. […] The reactions were stopped by the addition of 30 μl acetonitrile.

Setting [3] is: physiologically relevant substrates.

Like-named read-outs stand apart in the source and are kept apart here.

T1 sequence (A0A8I6ADW9 1-525 partner): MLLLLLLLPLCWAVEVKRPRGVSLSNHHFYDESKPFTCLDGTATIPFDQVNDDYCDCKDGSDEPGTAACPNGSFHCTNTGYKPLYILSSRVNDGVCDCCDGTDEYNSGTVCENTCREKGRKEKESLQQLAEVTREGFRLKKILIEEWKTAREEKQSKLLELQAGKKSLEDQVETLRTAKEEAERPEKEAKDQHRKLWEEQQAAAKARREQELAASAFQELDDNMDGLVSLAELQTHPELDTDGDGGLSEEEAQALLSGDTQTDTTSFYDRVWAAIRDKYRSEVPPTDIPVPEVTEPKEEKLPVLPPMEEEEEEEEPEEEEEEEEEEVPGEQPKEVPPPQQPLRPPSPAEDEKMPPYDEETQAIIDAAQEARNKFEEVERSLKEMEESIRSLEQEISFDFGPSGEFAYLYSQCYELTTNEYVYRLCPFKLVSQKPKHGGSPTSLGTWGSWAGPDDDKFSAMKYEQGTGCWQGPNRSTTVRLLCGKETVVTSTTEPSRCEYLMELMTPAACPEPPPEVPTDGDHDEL

What is called IC50 is the concentration at which inhibition is half-maximal. For `[N-]=[N+]=Nc1ccc(NCCCCCCN2C[C@H](O)[C@@H](O)[C@H](O)[C@H]2CO)c([N+](=O)[O-])c1` [NAP-DNJ, N—(N′-{4′azido-2′-nitrophenyl)-6-aminohexyl)-deoxynojirimycin], the IC50 in assay [1] (heptamannose substrate Glc1Man7GlcNAc1, read-out: α-Glucosidase II (b) Glc1Man7GlcNAc1 IC50) was 19200 ± 60 nM; in assay [1] (heptamannose substrate Glc2Man7GlcNAc1, read-out: α-Glucosidase II (a) Glc2Man7GlcNAc1 IC50), 11700 ± 700 nM; in assay [1] (pentamannose substrate Glc1Man5GlcNAc1, read-out: α-Glucosidase II (b) Glc1Man5GlcNAc1 IC50), 833 ± 180 nM; in assay [1] (pentamannose substrate Glc2Man5GlcNAc1, read-out: α-Glucosidase II (a) Glc2Man5GlcNAc1 IC50), 300 ± 100 nM; in assay [2] (α-Glucosidase I Glc3Man5GlcNAc1 IC50, pentamannose substrate Glc3Man5GlcNAc1) it was 17 ± 1 nM; in assay [2] (α-Glucosidase I Glc3Man7GlcNAc1 IC50, heptamannose substrate Glc3Man7GlcNAc1), 37 ± 1 nM. In addition, in assay [2] (α-Glucosidase I Glc3Man9GlcNAc1 IC50, nonamannose substrate Glc3Man9GlcNAc1), the IC50 came out at 22 ± 2 nM. The “more potent in inhibiting glucosidase I than glucosidase II (a)” value in assay [2] (heptamannose substrates) is “over 300 times”. Also, the “more potent in inhibiting glucosidase I than glucosidase II (b)” value in assay [2] (heptamannose substrates) is “more than 500 times”. Besides, the “inhibition of α-glucosidase I improved in comparison to NB-DNJ” value in assay [2] (pentamannose substrate) is 40 fold. The “inhibition better for α-glucosidase I than α-glucosidase II (a)” value in assay [2] (pentamannose substrates) worked out at 20 times. For the same molecule, the “inhibition better for α-glucosidase I than α-glucosidase II (b)” value in assay [2] (pentamannose substrates) was 50 times. For the same molecule, the “better at inhibiting glucosidase I than glucosidase II (a) and (b) activity” value in assay [2] (setting [3]) is reported as 300-500 times. In assay [2] (setting [3]), the “better than NB-DNJ in inhibiting all triglucosylated structures” value is on record as 25-50 times.
